Source: patent US10125182B2, “Peptides hormone analogues derivable from preproglucagon” (IMPERIAL INNOVATIONS LIMITED, priority 2014, dated 2018)
Ends that are not written are not given here.

Key:
Assay type in all cases: in vivo
[1] = Rat pharmacokinetic studies: plasma concentration after subcutaneous injection with ZnCl2 (radioimmunoassay); details: 4 rats, 2 mg of each compound in 20 μl aqueous ZnCl2 at 1:1 molar ratio, 3 days (FIG. 7)
Method: Male C57BL/6 mice (Harlan) or male Wistar rats (Charles River Ltd, Margate, UK) were used for all animal experiments. The pharmacokinetics of a peptide hormone analogue of the invention in rat was evaluated over 7 days. 4 rats were injected subcutaneously with the peptide hormone analogue G2051 [SEQ ID NO 197]. Each injection was of […] total volume/rat containing 2 mg peptide and 1 zinc ion (as ZnCl2) per peptide molecule. Blood was collected at the indicated time points, and the concentration of the peptide hormone analogue was determined. Peptide levels were assessed by/using radioimmunoassay using R4 exendin-4 antibody. […] 4 rats were injected subcutaneously with the peptide hormone analogue G2051 [SEQ ID NO 197]. Each injection was of 20 μl total volume/rat containing 2 mg peptide and 1 zinc ion (as ZnCl2) per peptide molecule. Blood was collected at the indicated time points, and the concentration of the comparator compound was determined. Peptide levels were assessed by/using radioimmunoassay using R4 exendin-4 antibody.

[2] = Mice feeding studies: body weight increase over 7 days; details: 200 nmol/kg subcutaneous in saline, compared with comparator having only His30-His31-His32 (G1721 or G1779; FIGS. 4, 5)
[3] = Mice feeding studies: cumulative food intake after subcutaneous administration; details: mice fasted 16 h, over 48 hours
Method: Male C57BL/6 mice (Harlan) or male Wistar rats (Charles River Ltd, Margate, UK) were used for all animal experiments.
Mice were individually housed in IVC cages. Animals were randomised into treatment groups, with stratification by body weight. Mice were fasted overnight (16 hrs) prior to peptide or vehicle administration. All peptide solutions were prepared freshly, immediately prior to administration. The vehicle used for all studies was 5% v/v water and 95% v/v sodium chloride (0.9% w/v). Peptide and vehicle were administered by subcutaneous injection, with dosage corrected for bodyweight. The injection volume was […]. […] Food intake was measured at 24 and 48 hours post injection. All statistics are calculated using a one-way ANOVA with Dunnett's post-test or one-way ANOVA with Bonferroni post-test.
Peptide hormone analogues of the invention (G1698 [SEQ ID NO 1], 500 nmol/kg dosage, reconstituted in saline, and G1718 [SEQ ID NO 6], 200 nmol/kg dosage, reconstituted in saline), comparator compounds (G1697, 500 nmol/kg dosage, reconstituted in saline, and G1717, 200 nmol/kg dosage, reconstituted in saline), or saline (vehicle control group) were administered subcutaneously to mice (group size 4-6 animals). […] Food intake (in grams) was measured at time intervals over 48 hours.

Row | Substance | initial increase or spike in plasma concentration level [1] | further results
1 | HSQGTFTSDYSKYLDSKKAQEFVQWLMNT-NH2 [G200] | initial increase or “spike” in plasma concentration level is observed | –
2 | HSQGTFTSDYSKYLDSKKAQEFVEWLMNT [G202] | initial increase or “spike” in plasma concentration level is observed | –
3 | HSQGTFTSDYSKYLDHRRAKDFVQWLMNT-NH2 [G94] | initial increase or “spike” in plasma concentration level is observed | –
4 | G1781: peptide hormone analogue of the invention; full sequence only in FIG. 1 (HSQGTFTSDYSKYLDERRAHEFIEWLLNGGHHHH; hormone analogue) | – | reduction of body weight increase relative to saline control [2]: more potent and more sustained reduction
5 | G1722: peptide hormone analogue of the invention; C-terminal extension His30-His31-His32-His33; full sequence only in FIG. 1 (HSQGTFTSDYSHYLDSKRAHEFIQWLLNGHHHH; hormone analogue) | – | reduction of body weight increase relative to saline control [2]: more potent and more sustained reduction
6 | HSQGTFTSDYSKYLDSKKAQEFVQWLLNT [G162] | initial increase or “spike” in plasma concentration level is observed | –
7 | G1718: peptide hormone analogue of the invention; C-terminal extension His30-His31-His32-His33; full sequence only in FIG. 1 (HSQGTFTSDYSHYLDQRRAHEFIQWLLNGHHHH; hormone analogue) | – | reduction of cumulative food intake relative to saline control ([3]; 200 nmol/kg subcutaneous in saline, compared with comparator G1717 (FIG. 3)): more potent and more sustained reduction
8 | G1698: peptide hormone analogue of the invention; C-terminal extension His30-His31-His32-His33; full sequence only in FIG. 1 (HSQGTFTSDYSKYLDERRAHEFIEWLLNGHHHH; hormone analogue) | – | reduction of cumulative food intake relative to saline control ([3]; 500 nmol/kg subcutaneous in saline, compared with comparator G1697 (FIG. 2)): more potent and more sustained reduction
